Source: patent publication EP0348399B1, “SORBIN AND PEPTIDE DERIVATIVES WHICH INCREASE ABORPTION BY THE MUCOUS MEMBRANES” (INSTITUT NATIONAL DE LA SANTE ET DE LA RECHERCHE MEDICALE …, priority 1988, dated 1992)

Assays:
[1] = tested on: rat; experiment: Water and electrolyte movements in ligated intestinal loops of the anaesthetised rat, peptides given by intravenous infusion; type: in vivo; settings: rat duodenal loop, i.v. infusion, dose 50 pmol/100g, 1 h contact; controls (TEMOINS) = 0; (-) absorption, (+) secretion; mean, groups of 8 or more
Experimental: Chez le rat privé d'aliment depuis 45 heures mais recevant de l'eau à volonté, une anesthésie est assurée par le pentobarbital sodique, un cathéter est placé sur une jugulaire, trois anses duodénale, jéjunale et iléale sont constituées entre deux ligatures. Un ml de solution test contenant 70 mM de NaCl, 5,2 mM de KCl, […] de CaCl₂, 10 mM de CO₃Na ET 136 mM de mannitol est instillé dans chaque anse, le PEG 4000 marqué au ³H est utilisé comme marqueur non absorbable, le ²²Na ou le ³⁶Cl comme marqueurs des flux bidirectionnels de sodium ou de chlore. La sorbine ou les peptides de synthèse sont administrés par voie veineuse dans du NaCl à 0,9%, à un débit de 3 ml/h. Après une heure de contact, le liquide restant dans la lumière de l'anse est collecté, le volume et les concentrations de Na, Ca, K, Cl et HCO₃ ainsi que la radioactivité liée au tritium, au chlore ou au sodium sont mesurés.
L'absorption est indiquée par un signe (-), la sécrétion par un signe (+). les résultats concernent des groupes de 8 animaux ou plus M ± SEM ^. P<0.05 ^..P<0.01

[2] = Arterial blood pressure measured by carotid catheterisation; type: in vivo; settings: measured by catheterisation of the carotid, result in words

HEPTAPEPTIDE
Cl [1]: -36,1 µeq | Eau [1]: -0,20 ml | Na [1]: -30,7 µeq

CC[C@H](C)[C@H](NC(=O)[C@H](Cc1ccc(O)cc1)NC(=O)[C@@H](NC(=O)[C@H](CCCNC(=N)N)NC(=O)[C@@H](N)CC(=O)O)C(C)C)C(=O)N[C@@H](Cc1cnc[nH]1)C(=O)N1CCC[C@H]1C(=O)N[C@@H](Cc1ccccc1)C(=O)O [ANGIOTENSINE II, angiotensine II]
tension artérielle [2]: augmentation de la tension artérielle
